From the supplement of paper PMC10883282

How the values were obtained:
Assay in all cases: relative viability vs DMSO control (72 h) (fraction); higher = more viable cells
[1] = system: SW872
Procedure, shortened: (§1)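 Densities for seeding sarcoma cell lines into 384-well plates were set to give 80–90% confluence. After 24 h, 2.5 µl of serially diluted compound from source plates of 10 mM to 0.0002 mM went in, and plates stayed 72 h at 37 °C in 5% CO2 with 0.1% DMSO vehicle and a 5 µM positive control. Percent growth from ATPLite readings, averaged over up to triplicate wells, served as relative viability, rescaled so 1 means full and 0 means none.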

[2] = system: VA-ES-BJ
Procedure, shortened: as §1

[3] = system: SK-LMS-1
Procedure, shortened: as §1

[4] = system: SW1353
Procedure, shortened: as §1

[5] = system: HT1080
Procedure, shortened: as §1

[6] = system: G401
Procedure, shortened: as §1

[7] = system: SK-ES-1
Procedure, shortened: as §1

[8] = system: KHOS-NP
Procedure, shortened: as §1

[9] = system: MES-SA
Procedure, shortened: as §1

[10] = system: SW684
Procedure, shortened: as §1

[11] = system: RD-ES
Procedure, shortened: as §1

[12] = system: RD
Procedure, shortened: as §1

CC[C@@H]1CN(C(=O)NCC(F)(F)F)C[C@@H]1c1cnc2cnc3[nH]ccc3n12 [Upadacitinib]
Conditions | relative viability
[1], 0.00017 µM | 1.07
[1], 0.00051 µM | 1.07
[1], 0.00152 µM | 1.07
[1], 0.00457 µM | 1.03
[1], 0.01372 µM | 1.03
[1], 0.04115 µM | 1.01
[1], 0.1235 µM | 1.01
[1], 0.3704 µM | 0.963
[1], 1.111 µM | 1
[1], 3.333 µM | 0.97
[1], 10 µM | 0.85
[2], 0.00017 µM | 1.1
[2], 0.00051 µM | 1.05
[2], 0.00152 µM | 1.07
[2], 0.00457 µM | 1.04
[2], 0.01372 µM | 1.05
[2], 0.04115 µM | 1.06
[2], 0.1235 µM | 1.04
[2], 0.3704 µM | 1.037
[2], 1.111 µM | 1
[2], 3.333 µM | 1.03
[2], 10 µM | 0.995
[3], 0.00017 µM | 1.06
[3], 0.00051 µM | 1.05
[3], 0.00152 µM | 1.07
[3], 0.00457 µM | 1.07
[3], 0.01372 µM | 1.09
[3], 0.04115 µM | 1.08
[3], 0.1235 µM | 1.056
[3], 0.3704 µM | 1.05
[3], 1.111 µM | 1.02
[3], 3.333 µM | 0.979
[3], 10 µM | 0.772
[4], 0.00017 µM | 1.04
[4], 0.00051 µM | 1.04
[4], 0.00152 µM | 1.02
[4], 0.00457 µM | 1.04
[4], 0.01372 µM | 0.997
[4], 0.04115 µM | 1.01
[4], 0.1235 µM | 1.001
[4], 0.3704 µM | 0.942
[4], 1.111 µM | 0.937
[4], 3.333 µM | 0.84
[4], 10 µM | 0.686
[5], 0.00017 µM | 1.06
[5], 0.00051 µM | 1.06
[5], 0.00152 µM | 1.08
[5], 0.00457 µM | 1.05
[5], 0.01372 µM | 1.07
[5], 0.04115 µM | 1.06
[5], 0.1235 µM | 1.05
[5], 0.3704 µM | 1.062
[5], 1.111 µM | 1.035
[5], 3.333 µM | 1.01
[5], 10 µM | 0.9733
[6], 0.00017 µM | 1.03
[6], 0.00051 µM | 1.04
[6], 0.00152 µM | 1
[6], 0.00457 µM | 1.04
[6], 0.01372 µM | 1.02
[6], 0.04115 µM | 0.987
[6], 0.1235 µM | 1.01
[6], 0.3704 µM | 0.977
[6], 1.111 µM | 0.953
[6], 3.333 µM | 0.904
[6], 10 µM | 0.842
[7], 0.00017 µM | 1.02
[7], 0.00051 µM | 1.01
[7], 0.00152 µM | 1.05
[7], 0.00457 µM | 1.02
[7], 0.01372 µM | 1.02
[7], 0.04115 µM | 1
[7], 0.1235 µM | 1.058
[7], 0.3704 µM | 1.01
[7], 1.111 µM | 0.982
[7], 3.333 µM | 0.986
[7], 10 µM | 0.907
[8], 0.00017 µM | 1.07
[8], 0.00051 µM | 1.09
[8], 0.00152 µM | 1.07
[8], 0.00457 µM | 1.08
[8], 0.01372 µM | 1.08
[8], 0.04115 µM | 1.088
[8], 0.1235 µM | 1.07
[8], 0.3704 µM | 1.06
[8], 1.111 µM | 1.03
[8], 3.333 µM | 0.965
[8], 10 µM | 0.912
[9], 0.00017 µM | 0.941
[9], 0.00051 µM | 0.949
[9], 0.00152 µM | 0.947
[9], 0.00457 µM | 0.939
[9], 0.01372 µM | 0.932
[9], 0.04115 µM | 0.92
[9], 0.1235 µM | 0.923
[9], 0.3704 µM | 0.936
[9], 1.111 µM | 0.885
[9], 3.333 µM | 0.873
[9], 10 µM | 0.812
[10], 0.00017 µM | 1.1
[10], 0.00051 µM | 1.19
[10], 0.00152 µM | 1.18
[10], 0.00457 µM | 1.18
[10], 0.01372 µM | 1.17
[10], 0.04115 µM | 1.16
[10], 0.1235 µM | 1.18
[10], 0.3704 µM | 1.13
[10], 1.111 µM | 1.17
[10], 3.333 µM | 1.11
[10], 10 µM | 1.03
[11], 0.00017 µM | 0.981
[11], 0.00051 µM | 0.979
[11], 0.00152 µM | 1
[11], 0.00457 µM | 0.979
[11], 0.01372 µM | 1
[11], 0.04115 µM | 0.99
[11], 0.1235 µM | 0.97
[11], 0.3704 µM | 0.974
[11], 1.111 µM | 0.964
[11], 3.333 µM | 0.996
[11], 10 µM | 0.989
[12], 0.00017 µM | 1.07
[12], 0.00051 µM | 1.08
[12], 0.00152 µM | 1.13
[12], 0.00457 µM | 1.13
[12], 0.01372 µM | 1.14
[12], 0.04115 µM | 1.14
[12], 0.1235 µM | 1.08
[12], 0.3704 µM | 1.14
[12], 1.111 µM | 1.14
[12], 3.333 µM | 1.07
[12], 10 µM | 1

Clc1ccc(Nc2nnc(Cc3ccncc3)c3ccccc23)cc1 [Vatalanib]
Conditions | relative viability
[1], 0.00017 µM | 1.01
[1], 0.00051 µM | 1.01
[1], 0.00152 µM | 1.02
[1], 0.00457 µM | 1.026
[1], 0.01372 µM | 0.9937
[1], 0.04115 µM | 1.02
[1], 0.1235 µM | 1.022
[1], 0.3704 µM | 1.021
[1], 1.111 µM | 1.02
[1], 3.333 µM | 1.03
[1], 10 µM | 0.971
[2], 0.00017 µM | 1.01
[2], 0.00051 µM | 1.01
[2], 0.00152 µM | 1
[2], 0.00457 µM | 1.04
[2], 0.01372 µM | 1.02
[2], 0.04115 µM | 1.02
[2], 0.1235 µM | 1.03
[2], 0.3704 µM | 1.05
[2], 1.111 µM | 1.02
[2], 3.333 µM | 1.07
[2], 10 µM | 1.05
[3], 0.00017 µM | 1.03
[3], 0.00051 µM | 1.02
[3], 0.00152 µM | 0.992
[3], 0.00457 µM | 1
[3], 0.01372 µM | 1.026
[3], 0.04115 µM | 1
[3], 0.1235 µM | 1.016
[3], 0.3704 µM | 0.9565
[3], 1.111 µM | 0.967
[3], 3.333 µM | 0.938
[3], 10 µM | 0.858
[4], 0.00017 µM | 0.9762
[4], 0.00051 µM | 0.9786
[4], 0.00152 µM | 0.939
[4], 0.00457 µM | 0.962
[4], 0.01372 µM | 0.935
[4], 0.04115 µM | 0.9589
[4], 0.1235 µM | 0.966
[4], 0.3704 µM | 0.978
[4], 1.111 µM | 0.93
[4], 3.333 µM | 0.934
[4], 10 µM | 0.881
[5], 0.00017 µM | 1.01
[5], 0.00051 µM | 0.995
[5], 0.00152 µM | 0.989
[5], 0.00457 µM | 1.01
[5], 0.01372 µM | 0.993
[5], 0.04115 µM | 0.9838
[5], 0.1235 µM | 0.986
[5], 0.3704 µM | 1
[5], 1.111 µM | 1.021
[5], 3.333 µM | 1.02
[5], 10 µM | 1.07
[6], 0.00017 µM | 0.965
[6], 0.00051 µM | 0.975
[6], 0.00152 µM | 0.954
[6], 0.00457 µM | 0.973
[6], 0.01372 µM | 0.979
[6], 0.04115 µM | 1
[6], 0.1235 µM | 0.947
[6], 0.3704 µM | 0.985
[6], 1.111 µM | 0.933
[6], 3.333 µM | 0.876
[6], 10 µM | 0.7239
[7], 0.00017 µM | 0.978
[7], 0.00051 µM | 0.987
[7], 0.00152 µM | 0.968
[7], 0.00457 µM | 1.04
[7], 0.01372 µM | 1.03
[7], 0.04115 µM | 1.01
[7], 0.1235 µM | 0.995
[7], 0.3704 µM | 1.04
[7], 1.111 µM | 1.05
[7], 3.333 µM | 1.02
[7], 10 µM | 0.91
[8], 0.00017 µM | 1.041
[8], 0.00051 µM | 1.054
[8], 0.00152 µM | 1.04
[8], 0.00457 µM | 1.06
[8], 0.01372 µM | 1.03
[8], 0.04115 µM | 1.05
[8], 0.1235 µM | 1.058
[8], 0.3704 µM | 1.062
[8], 1.111 µM | 1.07
[8], 3.333 µM | 1.07
[8], 10 µM | 1.08
[9], 0.00017 µM | 0.897
[9], 0.00051 µM | 0.905
[9], 0.00152 µM | 0.908
[9], 0.00457 µM | 0.902
[9], 0.01372 µM | 0.925
[9], 0.04115 µM | 0.92
[9], 0.1235 µM | 0.922
[9], 0.3704 µM | 0.938
[9], 1.111 µM | 0.937
[9], 3.333 µM | 0.919
[9], 10 µM | 0.854
[10], 0.00017 µM | 1.13
[10], 0.00051 µM | 1.0999
[10], 0.00152 µM | 1.09
[10], 0.00457 µM | 1.11
[10], 0.01372 µM | 1.11
[10], 0.04115 µM | 1.1
[10], 0.1235 µM | 1.08
[10], 0.3704 µM | 1.12
[10], 1.111 µM | 1.09
[10], 3.333 µM | 1.03
[10], 10 µM | 1.03
[11], 0.00017 µM | 0.987
[11], 0.00051 µM | 0.954
[11], 0.00152 µM | 0.975
[11], 0.00457 µM | 0.983
[11], 0.01372 µM | 0.967
[11], 0.04115 µM | 0.959
[11], 0.1235 µM | 0.965
[11], 0.3704 µM | 0.956
[11], 1.111 µM | 0.989
[11], 3.333 µM | 0.98
[11], 10 µM | 0.947
[12], 0.00017 µM | 1.09
[12], 0.00051 µM | 1.1
[12], 0.00152 µM | 1.1
[12], 0.00457 µM | 1.095
[12], 0.01372 µM | 1.093
[12], 0.04115 µM | 1.08
[12], 0.1235 µM | 1.09
[12], 0.3704 µM | 1.12
[12], 1.111 µM | 1.12
[12], 3.333 µM | 1.11
[12], 10 µM | 1.03
